The values below come from patent US12509457B2, “Bicyclic nitrogen containing heterocycles as inhibitors of salt-induced kinase SIK2” (priority 2019, dated 2025).

Usually Ki stands for a measure of affinity in units of concentration, obtained from inhibition or displacement.

What all share (type): biochemical
Experiment [1] has as its target SIK3 (Homo sapiens, UniProt Q9Y2K2). Nature of the experiment: SIK3 kinase assay, IMAP fluorescence polarization. In general terms: In fluorescence polarisation assays a small probe gives low polarisation when free and higher when bound to something large.
Experiment [2] deals with SIK2 (Homo sapiens, UniProt Q9H0K1). The experiment is described as follows: SIK2 kinase assay, IMAP fluorescence polarization.
Chain of SIK2 (Q9H0K1 whole entry): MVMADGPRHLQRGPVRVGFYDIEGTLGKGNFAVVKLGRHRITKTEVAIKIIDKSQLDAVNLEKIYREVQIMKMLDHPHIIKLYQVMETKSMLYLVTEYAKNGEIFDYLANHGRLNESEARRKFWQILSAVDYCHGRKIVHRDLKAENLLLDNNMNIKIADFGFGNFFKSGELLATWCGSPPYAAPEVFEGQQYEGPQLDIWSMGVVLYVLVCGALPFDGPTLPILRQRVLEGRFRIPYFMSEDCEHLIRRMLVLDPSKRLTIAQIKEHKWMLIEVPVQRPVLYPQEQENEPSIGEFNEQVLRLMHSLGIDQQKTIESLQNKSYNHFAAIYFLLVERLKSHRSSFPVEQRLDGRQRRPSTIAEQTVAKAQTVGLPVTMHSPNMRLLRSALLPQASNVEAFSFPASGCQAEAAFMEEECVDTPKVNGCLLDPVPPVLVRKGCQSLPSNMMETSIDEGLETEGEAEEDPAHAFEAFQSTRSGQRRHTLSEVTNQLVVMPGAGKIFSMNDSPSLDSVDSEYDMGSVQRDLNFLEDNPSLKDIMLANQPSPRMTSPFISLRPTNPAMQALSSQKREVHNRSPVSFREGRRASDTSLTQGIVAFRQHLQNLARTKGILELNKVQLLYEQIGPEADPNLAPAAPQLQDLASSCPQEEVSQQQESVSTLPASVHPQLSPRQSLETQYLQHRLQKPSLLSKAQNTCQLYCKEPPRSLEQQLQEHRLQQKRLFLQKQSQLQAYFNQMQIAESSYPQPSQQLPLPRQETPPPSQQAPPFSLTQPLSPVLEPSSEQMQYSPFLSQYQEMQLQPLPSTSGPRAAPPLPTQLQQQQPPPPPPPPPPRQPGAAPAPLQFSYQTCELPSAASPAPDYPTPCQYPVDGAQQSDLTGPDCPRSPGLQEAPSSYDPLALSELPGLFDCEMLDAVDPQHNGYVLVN
Experiment [3] has as its target Src (Homo sapiens, UniProt P12931). The experiment is described as follows: Src kinase assay, IMAP fluorescence polarization.
Experiment [4] addresses Abl (Homo sapiens, UniProt P00519). The experiment is described as follows: Abl kinase assay, IMAP fluorescence polarization.
Experiment [5] has as its target SIK1 (Homo sapiens, UniProt P57059). Nature of the experiment: SIK1 kinase assay, IMAP fluorescence polarization.
The target in experiment [6] is EPHA2 (Homo sapiens, UniProt P29317). The experiment is described as follows: EPHA2 kinase assay, IMAP fluorescence polarization. Conditions: 50 or 100 μM ATP; average.
The mark [7] stands for this setting: 50 or 100 μM ATP, average, read-out: SIK3-AVERAGE Ki.
[8] abbreviates: 50 or 100 μM ATP, average, read-out: SIK2-AVERAGE Ki.
Setting [9] is: 50 or 100 μM ATP, average, read-out: Src-AVERAGE Ki.
[10] abbreviates: 50 or 100 μM ATP, average, read-out: SIK1-AVERAGE Ki.

Where two headings read alike, the source gives them in different places.

Chain of Src (P12931 whole entry): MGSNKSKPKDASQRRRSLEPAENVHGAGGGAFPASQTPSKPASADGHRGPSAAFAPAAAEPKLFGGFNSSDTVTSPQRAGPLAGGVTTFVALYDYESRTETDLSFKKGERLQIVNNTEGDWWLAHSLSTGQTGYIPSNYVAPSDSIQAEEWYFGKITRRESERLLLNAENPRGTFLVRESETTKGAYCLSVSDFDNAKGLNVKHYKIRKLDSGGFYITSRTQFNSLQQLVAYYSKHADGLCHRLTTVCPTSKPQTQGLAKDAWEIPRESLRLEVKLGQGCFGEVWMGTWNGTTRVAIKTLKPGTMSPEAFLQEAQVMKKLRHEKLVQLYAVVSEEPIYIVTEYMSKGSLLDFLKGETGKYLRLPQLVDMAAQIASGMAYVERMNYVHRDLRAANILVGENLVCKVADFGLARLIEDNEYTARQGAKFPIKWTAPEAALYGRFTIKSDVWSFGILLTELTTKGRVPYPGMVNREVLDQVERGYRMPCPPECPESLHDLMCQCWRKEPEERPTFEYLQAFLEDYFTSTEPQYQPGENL
Chain of SIK1 (P57059 whole entry): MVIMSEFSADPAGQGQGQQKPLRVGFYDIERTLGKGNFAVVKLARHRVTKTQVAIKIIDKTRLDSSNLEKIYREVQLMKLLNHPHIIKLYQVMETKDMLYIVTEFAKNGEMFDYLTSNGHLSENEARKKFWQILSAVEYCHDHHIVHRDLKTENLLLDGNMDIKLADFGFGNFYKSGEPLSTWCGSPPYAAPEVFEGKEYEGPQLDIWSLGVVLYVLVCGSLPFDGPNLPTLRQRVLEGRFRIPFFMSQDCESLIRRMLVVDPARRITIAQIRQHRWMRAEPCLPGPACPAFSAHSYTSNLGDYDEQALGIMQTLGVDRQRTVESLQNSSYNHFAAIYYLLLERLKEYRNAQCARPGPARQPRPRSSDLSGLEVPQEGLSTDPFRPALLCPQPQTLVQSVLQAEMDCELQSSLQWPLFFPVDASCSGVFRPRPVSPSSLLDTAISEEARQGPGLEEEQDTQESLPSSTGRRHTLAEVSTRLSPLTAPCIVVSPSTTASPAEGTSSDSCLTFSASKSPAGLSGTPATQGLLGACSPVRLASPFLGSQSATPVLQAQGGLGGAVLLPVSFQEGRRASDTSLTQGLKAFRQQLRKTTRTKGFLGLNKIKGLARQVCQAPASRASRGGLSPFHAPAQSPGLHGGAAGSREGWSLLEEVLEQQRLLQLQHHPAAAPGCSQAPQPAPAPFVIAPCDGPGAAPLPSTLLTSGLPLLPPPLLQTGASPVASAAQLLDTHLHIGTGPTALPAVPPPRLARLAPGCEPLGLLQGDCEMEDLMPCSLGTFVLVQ
Chain of SIK3 (Q9Y2K2 whole entry): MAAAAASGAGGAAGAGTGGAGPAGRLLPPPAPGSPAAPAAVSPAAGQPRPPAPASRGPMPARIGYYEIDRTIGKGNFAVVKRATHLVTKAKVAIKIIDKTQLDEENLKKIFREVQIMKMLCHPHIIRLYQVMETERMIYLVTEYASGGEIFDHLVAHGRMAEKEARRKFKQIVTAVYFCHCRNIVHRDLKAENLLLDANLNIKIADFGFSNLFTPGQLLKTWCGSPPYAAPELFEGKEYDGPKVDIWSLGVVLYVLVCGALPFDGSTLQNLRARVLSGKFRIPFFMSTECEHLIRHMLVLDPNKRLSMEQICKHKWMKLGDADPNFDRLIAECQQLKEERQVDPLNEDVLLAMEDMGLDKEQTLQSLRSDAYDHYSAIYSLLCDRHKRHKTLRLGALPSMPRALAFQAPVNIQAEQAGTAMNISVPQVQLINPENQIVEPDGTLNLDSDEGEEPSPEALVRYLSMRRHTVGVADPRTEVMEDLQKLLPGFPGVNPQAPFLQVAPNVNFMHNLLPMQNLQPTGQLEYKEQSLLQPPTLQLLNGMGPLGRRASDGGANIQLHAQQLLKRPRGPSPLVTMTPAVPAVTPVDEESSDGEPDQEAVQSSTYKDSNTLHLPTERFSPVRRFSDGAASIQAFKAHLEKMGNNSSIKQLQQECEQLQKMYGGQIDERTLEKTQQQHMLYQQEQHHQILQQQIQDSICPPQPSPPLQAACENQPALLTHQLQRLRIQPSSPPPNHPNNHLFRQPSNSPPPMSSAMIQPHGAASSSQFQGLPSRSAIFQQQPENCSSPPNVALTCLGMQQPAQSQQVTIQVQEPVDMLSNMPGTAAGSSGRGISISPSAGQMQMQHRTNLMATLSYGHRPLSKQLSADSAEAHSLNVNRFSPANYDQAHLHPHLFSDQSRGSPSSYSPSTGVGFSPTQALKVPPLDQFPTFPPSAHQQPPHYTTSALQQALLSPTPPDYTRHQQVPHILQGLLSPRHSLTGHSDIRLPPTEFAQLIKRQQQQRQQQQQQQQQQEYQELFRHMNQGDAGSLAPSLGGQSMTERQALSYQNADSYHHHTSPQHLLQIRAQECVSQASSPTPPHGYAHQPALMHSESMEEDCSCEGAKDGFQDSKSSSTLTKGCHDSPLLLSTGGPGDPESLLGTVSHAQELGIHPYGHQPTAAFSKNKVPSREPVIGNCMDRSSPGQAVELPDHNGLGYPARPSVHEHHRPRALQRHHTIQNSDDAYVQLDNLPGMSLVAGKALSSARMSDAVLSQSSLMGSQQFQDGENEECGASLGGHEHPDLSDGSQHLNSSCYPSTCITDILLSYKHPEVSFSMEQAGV
Chain of Abl (P00519 whole entry): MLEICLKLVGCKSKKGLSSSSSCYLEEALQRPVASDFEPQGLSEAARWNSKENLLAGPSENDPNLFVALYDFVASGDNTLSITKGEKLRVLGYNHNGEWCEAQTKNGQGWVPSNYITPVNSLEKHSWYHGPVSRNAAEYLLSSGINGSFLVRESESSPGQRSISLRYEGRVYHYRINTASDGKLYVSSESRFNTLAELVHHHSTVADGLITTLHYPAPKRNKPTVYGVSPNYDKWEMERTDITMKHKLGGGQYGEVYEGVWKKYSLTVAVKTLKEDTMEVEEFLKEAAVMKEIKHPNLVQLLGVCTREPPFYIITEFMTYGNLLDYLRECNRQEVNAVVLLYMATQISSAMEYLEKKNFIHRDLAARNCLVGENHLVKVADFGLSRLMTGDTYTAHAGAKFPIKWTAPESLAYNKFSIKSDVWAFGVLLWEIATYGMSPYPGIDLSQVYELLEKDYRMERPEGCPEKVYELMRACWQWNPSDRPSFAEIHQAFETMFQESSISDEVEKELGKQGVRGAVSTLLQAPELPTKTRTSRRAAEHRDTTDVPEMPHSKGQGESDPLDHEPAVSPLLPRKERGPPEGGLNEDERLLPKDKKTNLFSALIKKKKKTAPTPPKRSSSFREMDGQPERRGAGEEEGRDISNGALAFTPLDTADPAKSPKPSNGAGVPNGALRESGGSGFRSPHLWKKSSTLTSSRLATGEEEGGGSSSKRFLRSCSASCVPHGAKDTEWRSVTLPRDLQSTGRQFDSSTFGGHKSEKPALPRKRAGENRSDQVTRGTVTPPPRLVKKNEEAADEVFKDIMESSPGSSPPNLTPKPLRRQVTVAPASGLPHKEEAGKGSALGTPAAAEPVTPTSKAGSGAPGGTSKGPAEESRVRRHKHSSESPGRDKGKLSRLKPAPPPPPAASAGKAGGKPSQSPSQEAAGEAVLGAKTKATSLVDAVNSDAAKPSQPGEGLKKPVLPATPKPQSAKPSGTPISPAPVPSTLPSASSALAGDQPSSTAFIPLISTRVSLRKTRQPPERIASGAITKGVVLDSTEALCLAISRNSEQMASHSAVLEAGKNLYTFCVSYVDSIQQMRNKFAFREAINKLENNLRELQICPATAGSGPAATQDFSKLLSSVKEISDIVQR

Turning to `CCN1CCC(N2C(=O)N(c3c(C)cccc3F)Cc3cnc(N)nc32)CC1` [Example 20, 7-amino-1-(1-ethyl-4-piperidyl)-3-(2-fluoro-6-methyl-phenyl)-4H-pyrimido[4,5-d]pyrimidin-2-one], the Ki in experiment [1] is 7.18 nM; in experiment [2] it was 0.803 nM; in experiment [3], greater than 1000 nM; in experiment [4], greater than 1000 nM; in experiment [5], 6.61 nM.

In the case of `Cc1cccc(F)c1N1Cc2cnccc2N(C2CCN(C)CC2)C1=O` [Example 24, 3-(2-fluoro-6-methyl-phenyl)-1-(1-methyl-4-piperidyl)-4H-pyrido[4,3-d]pyrimidin-2-one], the inhibition constant Ki in experiment [1] was 24 nM; in experiment [2], 8.97 nM; in experiment [3], 2250 nM; in experiment [4] it was greater than 10000 nM; in experiment [5], 20.6 nM.

Take `Cc1cccc(F)c1N1Cc2cnc(N)cc2N([C@H]2CCCCNC2)C1=O` [Example 53, 7-amino-1-[(3S)-azepan-3-yl]-3-(2-fluoro-6-methyl-phenyl)-4H-pyrido[4,3-d]pyrimidin-2-one]: the Ki came to 68 nM in experiment [1] (setting [7]); 2.24 nM in experiment [2] (setting [8]); 2870 nM in experiment [3] (setting [9]); 517 nM in experiment [4] (50 or 100 μM ATP, average, read-out: Abl-AVERAGE Ki); 815 nM in experiment [6]; 9.45 nM in experiment [5] (setting [10]).

On to `Cc1cccc(F)c1N1Cc2cncnc2N(C2CCNCC2)C1=O` [Example 16, 3-(2-fluoro-6-methyl-phenyl)-1-(4-piperidyl)-4H-pyrimido[4,5-d]pyrimidin-2-one], for which the Ki in experiment [1] is 489 nM; in experiment [2] it was 92.2 nM; in experiment [3], greater than 100000 nM; in experiment [4] it was 4180 nM; in experiment [5] it was 223 nM.

With `Cc1cccc(Cl)c1N1Cc2cnccc2N(C2CCN(C)CC2)C1=O` [Example 32, 3-(2-chloro-6-methyl-phenyl)-1-(1-methyl-4-piperidyl)-4H-pyrido[4,3-d]pyrimidin-2-one], the Ki in experiment [1] is 144 nM; in experiment [2], 19.6 nM; in experiment [3] it was 514 nM; in experiment [4] it was greater than 10000 nM; in experiment [5], 14.7 nM.

Turning to `Cc1cccc(Cl)c1N1Cc2cnc(N)nc2N(C2CCNCC2)C1=O` [Example 15, 7-Amino-3-(2-chloro-6-methyl-phenyl)-1-(4-piperidyl)-4H-pyrimido[4,5-d]pyrimidin-2-one], the inhibition constant Ki in experiment [1] was 18.7 nM; in experiment [2], 1.63 nM; in experiment [3] it was 138 nM; in experiment [4], greater than 1000 nM; in experiment [5] it was 6.23 nM.

For `Cc1cccc(Cl)c1N1Cc2cnc(N)cc2N(C2CCNCC2)C1=O` [Example 6, 7-amino-3-(2-chloro-6-methyl-phenyl)-1-(4-piperidyl)-4H-pyrido[4,3-d]pyrimidin-2-one], the inhibition constant Ki is 10.8 nM in experiment [1]; 3.09 nM in experiment [2]; 216 nM in experiment [3]; 108 nM in experiment [4]; 3.35 nM in experiment [5].

In the case of `Cc1cccc(F)c1N1Cc2cnc(N)nc2N(C2CCN(C)CC2)C1=O` [Example 19, 7-Amino-3-(2-fluoro-6-methyl-phenyl)-1-(1-methyl-4-piperidyl)-4H-pyrimido[4,5-d]pyrimidin-2-one], the inhibition constant (Ki) in experiment [1] is 4.12 nM; in experiment [2], 0.739 nM; in experiment [3], greater than 1000 nM; in experiment [4], greater than 1000 nM; in experiment [5] it was 9.73 nM.

On to `Cc1cccc(Cl)c1N1Cc2cncnc2N(C2CCNCC2)C1=O` [Example 17, 3-(2-chloro-6-methyl-phenyl)-1-(4-piperidyl)-4H-pyrimido[4,5-d]pyrimidin-2-one], for which the inhibitory constant (Ki) in experiment [1] is 1400 nM; in experiment [2], 128 nM; in experiment [3], greater than 100000 nM; in experiment [4], 3950 nM; in experiment [5], 273 nM.

Take `Cc1cccc(Cl)c1N1Cc2cnc(N)cc2N(C2CCN(C)CC2)C1=O` [Example 7, 7-amino-3-(2-chloro-6-methyl-phenyl)-1-(1-methyl-4-piperidyl)-4H-pyrido[4,3-d]pyrimidin-2-one]: the inhibition constant (Ki) came to 9.46 nM in experiment [1]; 2.49 nM in experiment [2]; 263 nM in experiment [3]; 271 nM in experiment [4]; 3.21 nM in experiment [5].

For the compound `CCN1CCC(N2C(=O)N(c3c(C)cccc3Cl)Cc3cnccc32)CC1` [Example 33, 3-(2-chloro-6-methyl-phenyl)-1-(1-ethyl-4-piperidyl)-4H-pyrido[4,3-d]pyrimidin-2-one], the inhibitory constant (Ki) in experiment [1] came to 213 nM; in experiment [2], 20.3 nM; in experiment [3], 1540 nM; in experiment [4], 4950 nM; in experiment [5] it was 34.1 nM.

Regarding `Cc1cccc(F)c1N1Cc2cnc(N(C)C)cc2N([C@H]2CCC[C@@H](N(C)C)C2)C1=O` (relative stereo) [Example 44, 7-(dimethylamino)-1-[cis-3-(dimethylamino)cyclohexyl]-3-(2-fluoro-6-methyl-phenyl)-4H-pyrido[4,3-d]pyrimidin-2-one], the Ki in experiment [1] (setting [7]) was 1370 nM; in experiment [2] (setting [8]) it was 123 nM; in experiment [3] (setting [9]) it was greater than 10000 nM; in experiment [6], 6410 nM; in experiment [5] (setting [10]) it was 263 nM.

`CCN1CCC(N2C(=O)N(c3c(C)cccc3Cl)Cc3cncnc32)CC1` [Example 29, 3-(2-chloro-6-methyl-phenyl)-1-(1-ethyl-4-piperidyl)-4H-pyrimido[4,5-d]pyrimidin-2-one]: the Ki in experiment [1] is 1700 nM; in experiment [2], 128 nM; in experiment [3] it was greater than 100000 nM; in experiment [4], 6490 nM; in experiment [5], 207 nM.

With `Cc1cccc(Cl)c1N1Cc2cnc(N)nc2N(C2CCN(C)CC2)C1=O` [Example 22, 7-amino-3-(2-chloro-6-methyl-phenyl)-1-(1-methyl-4-piperidyl)-4H-pyrimido[4,5-d]pyrimidin-2-one], the inhibition constant Ki was 27.8 nM in experiment [1]; 3.07 nM in experiment [2]; 265 nM in experiment [3]; greater than 1000 nM in experiment [4]; 10.6 nM in experiment [5].

`Cc1cccc(Cl)c1N1Cc2cnccc2N(C2CCNCC2)C1=O` [Example 66, 3-(2-chloro-6-methyl-phenyl)-1-(4-piperidyl)-4H-pyrido[4,3-d]pyrimidin-2-one]: the Ki in experiment [1] was found to be 98.8 nM; in experiment [2], 13.2 nM; in experiment [3], 436 nM; in experiment [4] it was 621 nM; in experiment [5], 10.2 nM.

For `Cc1cccc(Cl)c1N1Cc2cncnc2N(C2CCN(C)CC2)C1=O` [Example 28, 3-(2-chloro-6-methyl-phenyl)-1-(1-methyl-4-piperidyl)-4H-pyrimido[4,5-d]pyrimidin-2-one], the inhibition constant (Ki) in experiment [1] was 2220 nM; in experiment [2], 213 nM; in experiment [3], greater than 100000 nM; in experiment [4], 6220 nM; in experiment [5] it was 397 nM.

`Cc1cccc(F)c1N1Cc2cnc(N)nc2N(C2CCNCC2)C1=O` [Example 11, 7-Amino-3-(2-fluoro-6-methyl-phenyl)-1-(4-piperidyl)-4H-pyrimido[4,5-d]pyrimidin-2-one]: the Ki stood at 4.44 nM in experiment [1]; 0.481 nM in experiment [2]; 464 nM in experiment [3]; 171 nM in experiment [4]; 2.36 nM in experiment [5].

On to `CCN1CCC(N2C(=O)N(c3c(C)cccc3F)Cc3cnccc32)CC1` [Example 25, 1-(1-ethyl-4-piperidyl)-3-(2-fluoro-6-methyl-phenyl)-4H-pyrido[4,3-d]pyrimidin-2-one], for which the inhibition constant Ki is 36.3 nM in experiment [1]; 17 nM in experiment [2]; 2640 nM in experiment [3]; greater than 10000 nM in experiment [4]; 33.2 nM in experiment [5].

Consider `Cc1cccc(F)c1N1Cc2cncnc2N(C2CCN(C)CC2)C1=O` [Example 26, 3-(2-fluoro-6-methyl-phenyl)-1-(1-methyl-4-piperidyl)-4H-pyrimido[4,5-d]pyrimidin-2-one], for which the Ki in experiment [1] is 895 nM; in experiment [2], 192 nM; in experiment [3] it was greater than 100000 nM; in experiment [4], greater than 100000 nM; in experiment [5] it was 586 nM.

In the case of `Cc1cccc(F)c1N1Cc2cnc(N)cc2N(C2CCNCC2)C1=O` [Example 1, 7-Amino-3-(2-fluoro-6-methyl-phenyl)-1-(4-piperidyl)-4H-pyrido[4,3-d]pyrimidin-2-one], the Ki in experiment [1] is 1.79 nM; in experiment [2], 0.248 nM; in experiment [3] it was greater than 1000 nM; in experiment [4] it was greater than 1000 nM; in experiment [5], 1.68 nM.

For `CCN1CCC(N2C(=O)N(c3c(C)cccc3F)Cc3cncnc32)CC1` [Example 27, 1-(1-ethyl-4-piperidyl)-3-(2-fluoro-6-methyl-phenyl)-4H-pyrimido[4,5-d]pyrimidin-2-one], the Ki in experiment [1] is 956 nM; in experiment [2], 210 nM; in experiment [3], greater than 100000 nM; in experiment [4], 4190 nM; in experiment [5], 635 nM.

Turning to `Cc1cccc(F)c1N1Cc2cnc(N)cc2N(C2CCN(C)CC2)C1=O` [Example 3, 7-Amino-3-(2-fluoro-6-methyl-phenyl)-1-(1-methyl-4-piperidyl)-4H-pyrido[4,3-d]pyrimidin-2-one], the Ki in experiment [1] came to 0.975 nM; in experiment [2], 0.239 nM; in experiment [3] it was 387 nM; in experiment [4], 122 nM; in experiment [5], 0.632 nM.

On to `Cc1cccc(F)c1N1Cc2cnccc2N(C2CCNCC2)C1=O` [Example 18, 3-(2-Fluoro-6-methyl-phenyl)-1-(4-piperidyl)-4H-pyrido[4,3-d]pyrimidin-2-one], for which the Ki in experiment [1] was found to be 21.2 nM; in experiment [2], 8.2 nM; in experiment [3], 1900 nM; in experiment [4], 512 nM; in experiment [5] it was 12 nM.
